What was measured:
Test in all cases: radiometric […]-methyl transfer, Lineweaver-Burk
Format in all cases: biochemical
Details in all cases: co-substrate S-[14C-methyl]adenosylmethionine; 100 mM Tris-HCl pH 8.0, 1 mM CoCl2, 0.5% Triton X-100; temperature of kinetic assay not stated; read-out: apparent K m
PtrGXM4 = biological target: T1, PtrGXM4 (Populus trichocarpa, UniProt W8JN21)
T1 construct: gene GXM4; transmembrane domain removed; E. coli; full-length start MRSKNQS, recombinant start SPRPNSS, C-terminus SGKPFCP (translated from primers)
T1 sequence (W8JN21 34-301): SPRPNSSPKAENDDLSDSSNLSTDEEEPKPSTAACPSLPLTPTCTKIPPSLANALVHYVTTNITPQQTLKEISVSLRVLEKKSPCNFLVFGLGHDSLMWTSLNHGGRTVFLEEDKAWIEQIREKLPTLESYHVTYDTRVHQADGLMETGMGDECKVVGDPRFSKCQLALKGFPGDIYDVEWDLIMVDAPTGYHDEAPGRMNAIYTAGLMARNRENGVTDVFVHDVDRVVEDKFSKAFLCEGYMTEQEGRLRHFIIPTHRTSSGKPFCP

PtrGXM2 = biological target: T2, PtrGXM2 (Populus trichocarpa, UniProt W8JCL4)
T2 construct: gene GXM2; transmembrane domain removed; E. coli; full-length start MRPKSQQ, recombinant start SSSQESS, C-terminus DRPFCPE (translated from primers)
T2 sequence (W8JCL4 33-288): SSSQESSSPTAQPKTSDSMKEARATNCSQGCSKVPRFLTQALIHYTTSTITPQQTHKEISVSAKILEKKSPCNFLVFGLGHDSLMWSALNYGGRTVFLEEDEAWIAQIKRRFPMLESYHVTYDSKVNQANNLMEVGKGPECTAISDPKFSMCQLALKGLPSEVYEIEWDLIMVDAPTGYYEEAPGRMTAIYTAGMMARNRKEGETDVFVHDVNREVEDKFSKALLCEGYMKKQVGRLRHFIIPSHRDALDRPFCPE

PtrGXM3 = biological target: T3, PtrGXM3 (Populus trichocarpa, UniProt A9PC88)
T3 construct: gene GXM3; transmembrane domain removed; E. coli; full-length start MRPNKNQ, recombinant start SSPRSNP, C-terminus SGRPFCP (translated from primers)
T3 sequence (A9PC88 34-304): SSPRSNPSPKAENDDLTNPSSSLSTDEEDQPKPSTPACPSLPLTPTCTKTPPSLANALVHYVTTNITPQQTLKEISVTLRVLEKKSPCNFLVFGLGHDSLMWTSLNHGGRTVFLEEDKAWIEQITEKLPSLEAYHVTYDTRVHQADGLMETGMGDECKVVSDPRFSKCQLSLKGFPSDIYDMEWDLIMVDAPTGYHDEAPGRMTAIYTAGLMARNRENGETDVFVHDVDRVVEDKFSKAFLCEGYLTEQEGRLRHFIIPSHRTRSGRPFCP

PtrGXM1 = biological target: T4, PtrGXM1 (Populus trichocarpa, UniProt W8JDL1)
T4 construct: gene GXM1; transmembrane domain removed; E. coli; full-length start MRPKGQ, recombinant start PSSQESP, C-terminus DRPFCPE (translated from primers)
T4 sequence (W8JDL1 33-288): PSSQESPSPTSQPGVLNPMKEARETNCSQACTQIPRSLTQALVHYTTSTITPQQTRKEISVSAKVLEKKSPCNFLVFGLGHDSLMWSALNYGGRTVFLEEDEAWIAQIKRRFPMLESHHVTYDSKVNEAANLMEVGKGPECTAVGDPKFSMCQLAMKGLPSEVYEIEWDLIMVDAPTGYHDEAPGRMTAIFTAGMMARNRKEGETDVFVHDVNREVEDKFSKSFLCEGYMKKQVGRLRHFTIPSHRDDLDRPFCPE

GlcA-substituted Xyl4
Km (PtrGXM4): 290 µM
Km (PtrGXM2): 3980 µM
Km (PtrGXM3): 300 µM
Km (PtrGXM1): 3250 µM

Reference: paper PMC3921138, “Identification and Biochemical Characterization of Four Wood-Associated Glucuronoxylan Methyltransferases in Populus” (PLoS ONE, 2014)
